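Following 48 hours of exposure in 96-well plates, responses at five concentrations were used to interpolate endpoints linearly. Abbreviation: GI50, concentration required for 50% inhibition of growth.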 Calls of active or inactive are those of the source. Rule as the data show it: active = GI50 up to about 1.1 µM and inactive = higher.
How the values were obtained:
Test in all cases: NCI tumour cell line growth inhibition, 48 h
NCI-H522 = tested on: NCI-H522
SK-OV-3 = tested on: SK-OV-3
NCI-H226 = tested on: NCI-H226
MCF7 = tested on: MCF7
RPMI-8226 = tested on: RPMI-8226
HCT-116 = tested on: HCT-116
M14 = tested on: M14
MDA-MB-435 = tested on: MDA-MB-435
786-0 = tested on: 786-0
SF-268 = tested on: SF-268
T47D = tested on: T47D
MOLT-4 = tested on: MOLT-4
SN12C = tested on: SN12C
NCI-H23 = tested on: NCI-H23
K562 = tested on: K562
EKVX = tested on: EKVX
ACHN = tested on: ACHN
HT-29 = tested on: HT-29
OVCAR-4 = tested on: OVCAR-4
SNB-19 = tested on: SNB-19
U-251 = tested on: U-251
UO-31 = tested on: UO-31
UACC-257 = tested on: UACC-257
Hs-578T = tested on: Hs-578T
UACC-62 = tested on: UACC-62
OVCAR-3 = tested on: OVCAR-3
SR = tested on: SR
HCC 2998 = tested on: HCC 2998
DU-145 = tested on: DU-145
A549 = tested on: A549
SW-620 = tested on: SW-620
A498 = tested on: A498
SK-MEL-2 = tested on: SK-MEL-2
Malme-3M = tested on: Malme-3M
COLO 205 = tested on: COLO 205
TK-10 = tested on: TK-10
PC-3 = tested on: PC-3
HL-60 = tested on: HL-60
NCI/ADR-RES = tested on: NCI/ADR-RES
LOX IMVI = tested on: LOX IMVI
SF-539 = tested on: SF-539
MDA-N = tested on: MDA-N
OVCAR-8 = tested on: OVCAR-8
SK-MEL-5 = tested on: SK-MEL-5
SF-295 = tested on: SF-295
HOP-92 = tested on: HOP-92
KM12 = tested on: KM12
RXF 393 = tested on: RXF 393
SK-MEL-28 = tested on: SK-MEL-28
NCI-H460 = tested on: NCI-H460
IGROV-1 = tested on: IGROV-1
HCT-15 = tested on: HCT-15
MDA-MB-231 = tested on: MDA-MB-231
OVCAR-5 = tested on: OVCAR-5
HOP-62 = tested on: HOP-62
SNB-75 = tested on: SNB-75

Measured: GI50

C#C[C@@]1(O)CCCC2=CC3(CC[C@]21C)SCCS3
inactive: NCI-H522 > 100 µM | SK-OV-3 > 100 µM | NCI-H226 > 100 µM | MCF7 > 100 µM | RPMI-8226 > 100 µM | HCT-116 > 100 µM | M14 > 100 µM | MDA-MB-435 > 100 µM | 786-0 > 100 µM | SF-268 > 100 µM | T47D > 100 µM | MOLT-4 > 100 µM | SN12C > 100 µM | NCI-H23 > 100 µM | K562 > 100 µM | EKVX > 100 µM | ACHN > 100 µM | HT-29 > 100 µM | OVCAR-4 > 100 µM | SNB-19 > 100 µM | U-251 > 100 µM | UO-31 > 100 µM | UACC-257 > 100 µM | Hs-578T > 100 µM | UACC-62 > 100 µM | OVCAR-3 > 100 µM | SR > 100 µM | HCC 2998 > 100 µM | DU-145 > 100 µM | A549 > 100 µM | SW-620 > 100 µM | A498 > 100 µM | SK-MEL-2 > 100 µM | Malme-3M > 100 µM | COLO 205 > 100 µM | TK-10 > 100 µM | PC-3 > 100 µM | HL-60 45.6 µM | NCI/ADR-RES > 100 µM | LOX IMVI > 100 µM | SF-539 > 100 µM | MDA-N > 100 µM | OVCAR-8 > 100 µM | SK-MEL-5 > 100 µM | SF-295 > 100 µM | HOP-92 > 100 µM | KM12 > 100 µM | RXF 393 > 100 µM | SK-MEL-28 > 100 µM | NCI-H460 > 100 µM | IGROV-1 > 100 µM | MDA-MB-231 > 100 µM | OVCAR-5 > 100 µM | HOP-62 > 100 µM
> 100 µM: HCT-15

CC(C)(C)[Si](C)(C)OCC1OC(n2cnc3c(N)ncnc32)C(O[Si](C)(C)C(C)(C)C)C1O[Si](C)(C)C(C)(C)C (configuration not stated)
35 µM: HCT-15
inactive: NCI-H522 7.76 µM | SK-OV-3 > 10 µM | HCT-116 6.11 µM | M14 11.1 µM | 786-0 3.66 µM | SF-268 15.1 µM | T47D 11.9 µM | MOLT-4 2.04 µM | SN12C 14.9 µM | EKVX 24.9 µM | ACHN 6.82 µM | HT-29 9.75 µM | UACC-257 6.17 µM | Hs-578T 15.6 µM | UACC-62 7.41 µM | OVCAR-3 2.87 µM | SR 10.3 µM | DU-145 7.93 µM | A549 9.27 µM | SW-620 10.8 µM | SK-MEL-2 15.2 µM | SNB-75 13.4 µM | Malme-3M 44.9 µM | COLO 205 19.5 µM | PC-3 2.85 µM | NCI/ADR-RES > 100 µM | LOX IMVI 6.43 µM | MDA-N 7.14 µM | OVCAR-8 14.1 µM | SK-MEL-5 3.65 µM | SF-295 10.3 µM | HOP-92 33.7 µM | NCI-H460 4.11 µM | IGROV-1 8.39 µM | MDA-MB-231 10.9 µM | HOP-62 13.9 µM

— ChEMBL document CHEMBL1201862, “PubChem BioAssay data set” (2004)
